Experimental data as given in patent US20010039287A1, “AROMATIC SULFONE HYDROXAMIC ACID METALLOPROTEASE INHIBITOR” (priority 1997, published 2001).
Counter-ions that a name gives are not always drawn. Like-named read-outs stand apart in the source and are kept apart here.

Columns and labels:
Experiment in all cases: biochemical
[1] = target: recombinant human MMP-13 (Homo sapiens, UniProt P45452)
[2] = target: T1, recombinant human MMP-2 (Homo sapiens, UniProt P08253)
T1 sequence (P08253 110-660): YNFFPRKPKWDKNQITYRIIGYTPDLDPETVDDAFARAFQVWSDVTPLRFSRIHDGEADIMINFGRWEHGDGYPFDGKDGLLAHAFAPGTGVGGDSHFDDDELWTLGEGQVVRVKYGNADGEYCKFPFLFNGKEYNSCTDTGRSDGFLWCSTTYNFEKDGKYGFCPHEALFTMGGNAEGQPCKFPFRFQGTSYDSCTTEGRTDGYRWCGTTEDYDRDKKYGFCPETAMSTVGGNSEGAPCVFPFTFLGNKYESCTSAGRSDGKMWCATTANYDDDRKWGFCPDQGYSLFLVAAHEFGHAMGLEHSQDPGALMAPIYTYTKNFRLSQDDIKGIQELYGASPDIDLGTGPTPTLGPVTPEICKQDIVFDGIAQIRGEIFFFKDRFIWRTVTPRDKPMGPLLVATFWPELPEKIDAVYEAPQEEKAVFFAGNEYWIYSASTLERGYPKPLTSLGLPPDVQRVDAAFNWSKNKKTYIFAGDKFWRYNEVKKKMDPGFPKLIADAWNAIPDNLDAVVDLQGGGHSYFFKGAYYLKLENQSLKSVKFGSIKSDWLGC

[3] = target: T2, recombinant human MMP-1 (Homo sapiens, UniProt P03956); conditions: read-out: MMP-1 IC50
T2 construct: made in house; host or cells: transfected HT-1080 cells (provided by Dr. Harold Welgus, Washington University)
T2 sequence (P03956 100-469): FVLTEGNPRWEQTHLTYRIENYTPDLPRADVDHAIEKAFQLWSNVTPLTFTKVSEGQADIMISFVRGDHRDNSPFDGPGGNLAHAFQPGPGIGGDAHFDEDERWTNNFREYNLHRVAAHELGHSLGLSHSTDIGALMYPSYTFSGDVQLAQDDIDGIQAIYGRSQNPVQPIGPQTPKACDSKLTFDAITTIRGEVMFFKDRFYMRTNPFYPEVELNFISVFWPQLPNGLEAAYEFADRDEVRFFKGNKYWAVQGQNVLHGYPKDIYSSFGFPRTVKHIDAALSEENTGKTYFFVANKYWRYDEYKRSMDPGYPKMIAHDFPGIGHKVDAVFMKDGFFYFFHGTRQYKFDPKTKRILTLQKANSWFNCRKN

[4] = Inhibition Table A, read-out: MMP-13 IC50
[5] = Inhibition Table A, read-out: MMP-2 IC50
[6] = Inhibition Table B, read-out: MMP-13 IC50
[7] = Inhibition Table B, read-out: MMP-2 IC50

| Compound | IC50 ([3]; Inhibition Table A) [µM] | IC50 [1, 6] [µM] | IC50 [2, 7] [nM] | IC50 ([3]; Inhibition Table B) [µM] | further results |
| --- | --- | --- | --- | --- | --- |
| CC(C)(C)OC(=O)N1CCC(C(=O)NO)(S(=O)(=O)c2ccc(Oc3ccccc3)cc2)CC1 [Example 3] | 1.14 | – | – | – | IC50 [1, 4]: 0.0003 µM; IC50 [2, 5]: 0.2 nM |
| O=C(NO)/C(=C\c1ccccc1)S(=O)(=O)c1ccc(Oc2ccccc2)cc1 [Example 5] | > 10 | – | – | – | IC50 [1, 4]: 4.8 µM; IC50 [2, 5]: 1800 nM |
| O=C(CS(=O)(=O)c1ccc(NC(=O)c2ccccc2)cc1)NO [Example 7] | > 10 | – | – | – | IC50 [2, 5]: 1.8 nM |
| O=C(Nc1ccc(S(=O)(=O)C2(C(=O)NO)CCNCC2)cc1)c1ccccc1 [Example 8] | > 10 | – | – | – | IC50 [1, 4]: 0.0241 µM |
| O=C(NO)C1(S(=O)(=O)c2ccc(N3CCC(c4ccccc4)CC3)cc2)CCOCC1 [Example 11] | > 10 | – | – | – | IC50 [1, 4]: 0.006 µM; IC50 ([2]; MMP-2 IC50 (nM)): 4.4 nM |
| CN1CCC(C(=O)NO)(S(=O)(=O)c2ccc(Oc3ccccc3)cc2)CC1 [Example 14] | 0.464 | – | – | – | IC50 [1, 4]: 0.0001 µM; IC50 [2, 5]: < 0.1 nM |
| CS(=O)(=O)N1CCC(C(=O)NO)(S(=O)(=O)c2ccc(Oc3ccccc3)cc2)CC1 [Example 18] | 0.8 | – | – | – | IC50 [1]: 0.0005 µM; IC50 ([2]; MMP-2 IC50 (nM)): 0.3 nM |
| O=C(NO)C1(S(=O)(=O)c2ccc(SC3CCCCC3)cc2)CCNCC1 [Example 19] | > 10 | – | – | – | IC50 [1, 4]: 0.009 µM; IC50 [2, 5]: 13.9 nM |
| O=C(NO)C1(S(=O)(=O)c2ccc(N3CCN(c4ccccc4)CC3)cc2)CCOCC1 [Example 20] | 10 | – | – | – | IC50 [1, 4]: 0.0017 µM; IC50 ([2]; MMP-2 IC50 (nM)): 23.5 nM |
| O=C(NO)C1(S(=O)(=O)c2ccc(Sc3ccc(F)cc3)cc2)CCNCC1 [Example 22] | > 10 | – | – | – | IC50 [1, 4]: 0.0012 µM; IC50 [2, 5]: 0.9 nM |
| C#CCN1CCC(C(=O)NO)(S(=O)(=O)c2ccc(Oc3ccc(-n4ccnc4)cc3)cc2)CC1 [Example 23] | 2.28 | – | – | – | IC50 [1, 4]: 0.0002 µM; IC50 [2, 5]: < 0.1 nM |
| O=C(NO)C1(S(=O)(=O)c2ccc(Sc3ccc(Cl)cc3)cc2)CCOCC1 [Example 25] | > 10 | – | – | – | IC50 [1, 4]: 0.003 µM; IC50 [2, 5]: 2.6 nM |
| C=CCN1CCC(C(=O)NO)(S(=O)(=O)c2ccc(Sc3ccccc3)cc2)CC1 [Example 28] | 0.77 | – | – | – | IC50 [1, 4]: < 0.0001 µM; IC50 [2, 5]: < 0.1 nM |
| O=C(NO)C1(S(=O)(=O)c2ccc(Oc3ccccc3)cc2)CCN(CC2CC2)CC1 [Example 29] | > 10 | – | – | – | IC50 [1]: 0.0003 µM; IC50 [2, 5]: 0.15 nM |
| O=C(CN1CCCC1)N1CCC(C(=O)NO)(S(=O)(=O)c2ccc(Oc3ccccc3)cc2)CC1 [Example 31, N-hydroxy-4-[(4-phenoxyphenyl)sulfonyl]-1-(1-pyrrolidinylacetyl)-4-piperidine Carboxamide, Monohydrochloride] | – | 0.0002 | < 0.1 | 0.37 | – |
| CC(C)N1CCC(C(=O)NO)(S(=O)(=O)c2ccc(Sc3ccccc3)cc2)CC1 [Example 34, N-hydroxy-1-(1-methylethyl)-4-[[4-(phenylthio)phenyl]sulfonyl]-4-piperidinecarboxamide, Monohydrochloride] | – | 0.0012 | 1.1 | – | IC50 [3]: > 10 µM |
| CC(=O)N1CCC(C(=O)NO)(S(=O)(=O)c2ccc(Oc3ccc4c(c3)OCO4)cc2)CC1 [Example 37, 1-acetyl-4-[[4-(1,3-benzodioxol-5-yloxy)phenyl]sulfonyl]-N-hydroxy-4-piperidinecarboxamide, Monohydrochloride] | – | 0.0003 | 0.2 | 1 | – |
| C#CCN1CCC(C(=O)NO)(S(=O)(=O)c2ccc(Oc3cc(OC)cc(OC)c3)cc2)CC1 [Example 39, 4-[[4-(3,5-dimethoxyphenoxy)phenyl]sulfonyl]-N-hydroxy-1-(2-propynyl)-4-piperidinecarboxamide, Monohydrochloride] | – | 0.0245 | 230 | > 10 | – |
| C#CCN1CCC(C(=O)NO)(S(=O)(=O)c2ccc(Oc3cccc(C)c3)cc2)CC1 [Example 41, N-hydroxy-4-[[4-(3-methylphenoxy)phenyl]sulfonyl]-1-(2-propynyl)-4-piperidinecarboxamide, Monohydrochloride] | – | 0.0002 | 0.15 | 1.2 | – |
| C#CCN1CCC(C(=O)NO)(S(=O)(=O)c2ccc(SC3CCCC3)cc2)CC1 [Example 45, 4-[[4-(Cyclopentylthio)-phenyl]sulfonyl]-N-hydroxy-1-(2-propynyl)-4-piperidinecarboxamide, Monohydrochloride] | – | 0.0017 | 2.5 | 8.8 | – |

| Compound | IC50 ([3]; Inhibition Table A) [µM] | IC50 [1, 6] [µM] | IC50 [2, 7] [nM] | IC50 ([3]; Inhibition Table B) [µM] | further results |
| --- | --- | --- | --- | --- | --- |
| CC1(C)OCC(C(=O)NO)(S(=O)(=O)c2ccc(Oc3ccccc3)cc2)CO1 [Example 48] | – | 0.00025 | 0.2 | 0.21 | – |
| O=C(NO)C1(S(=O)(=O)c2ccc(Sc3ccccc3)cc2)CCSCC1 [Example 49, tetrahydro-N-hydroxy-4-[[4-(phenylthio)phenyl]sulfonyl]-2H-thiopyran-4-carboxamide] | – | 0.09 | 76.9 | > 10 | – |
| COc1ccc(Sc2ccc(S(=O)(=O)C3(C(=O)NO)CCSCC3)cc2)cc1 [Example 51, Tetrahydro-N-hydroxy-4-[[4-[(4-methoxypheny)thio]phenyl]sulfonyl]-2H-thiopyran-4-carboxamide] | – | 0.0013 | 0.7 | 5.5 | – |
| O=C(NO)C1(S(=O)(=O)c2ccc(Sc3ccccc3)cc2)CCS(=O)(=O)CC1 [Example 52] | – | 0.0059 | 2.7 | > 10 | – |
| NCCc1ccc(Oc2ccc(S(=O)(=O)C3(C(=O)NO)CCS(=O)(=O)CC3)cc2)cc1 [Example 54, 4-[[4-[4-(2-aminoethyl))-phenoxy]phenyl]sulfonyl]tetrahydro-N-hydroxy-2H-thiopyran-4-carboxamide 1,1-dioxide Monohydrochloride] | – | 0.12 | 60 | > 10 | – |
| O=C(NOC1CCCCO1)C1(S(=O)(=O)c2ccc(F)cc2)CCOCC1 (centres unmarked) [Example 55, 4-[(4-fluorophenyl)-sulfonyl]tetrahydro-N-[(tetrahydro-2H-pyran-2-yl)oxy]-2H-pyran-4-carboxamide] | – | 0.0003 | 0.1 | 1.2 | – |
| O=C(NO)C1(S(=O)(=O)c2ccc(Oc3ccc(F)c(F)c3)cc2)CCOCC1 [Example 56, 4-[[4-(3,4-difluorophenoxy)-phenyl]sulfonyl]tetrahydro-N-hydroxy-2H-pyran-4-carboxamide] | – | 0.00015 | < 0.1 | 1.5 | – |
| CNC(=O)C1CCCN(c2ccc(S(=O)(=O)C3(C(=O)NO)CCOCC3)cc2)C1 (centres unmarked) [Example 139] | – | – | 1000 | – | – |
| O=C(C1CCCN(c2ccc(S(=O)(=O)C3(C(=O)NO)CCOCC3)cc2)C1)N1CCOCC1 (centres unmarked) [Example 140] | – | – | 1000 | – | – |
| C[C@@H]1CN(C(=O)C2CCCN(c3ccc(S(=O)(=O)C4(C(=O)NO)CCOCC4)cc3)C2)C[C@H](C)O1 (some centres unmarked) [Example 169] | – | – | – | 10 | – |
| O=C(C1CCCN(c2ccc(S(=O)(=O)C3(C(=O)NO)CCOCC3)cc2)C1)N1CCCC2CCCCC21 (centres unmarked) [Example 170] | – | – | – | 10 | – |
| N[C@H]1CCN(C(=O)C2CCN(c3ccc(S(=O)(=O)C4(C(=O)NO)CCOCC4)cc3)CC2)C1 [Example 175] | – | – | – | 10 | – |
| C[C@@H]1CN(C(=O)C2CCN(c3ccc(S(=O)(=O)C4(C(=O)NO)CCOCC4)cc3)CC2)C[C@H](C)O1 [Example 176] | – | – | – | > 10 | – |
| O=C(C1CCN(c2ccc(S(=O)(=O)C3(C(=O)NO)CCOCC3)cc2)CC1)N1CCCC1 [Example 179] | – | 0.1 | – | – | – |
| CCCCNC(=O)C1CCN(c2ccc(S(=O)(=O)C3(C(=O)NO)CCOCC3)cc2)CC1 [Example 181] | – | – | – | 10 | – |
| O=C(NC1CCCCCC1)C1CCN(c2ccc(S(=O)(=O)C3(C(=O)NO)CCOCC3)cc2)CC1 [Example 194] | – | – | – | 10 | – |
| O=C(NCc1ccncc1)C1CCN(c2ccc(S(=O)(=O)C3(C(=O)NO)CCOCC3)cc2)CC1 [Example 195] | – | – | 100 | 10 | – |
| COCCN1CCC(C(N)=O)(S(=O)(=O)c2ccc(Oc3ccc(OC(F)(F)F)cc3)cc2)CC1 [Example 444, 1-(2-methoxyethyl)-4-[[4-[4-(trifluoromethoxy)phenoxy]phenyl]sulfonyl]-4-piperidinecarboxamide] | – | – | – | – | IC50 [3]: > 10 µM |
| C#CCN1CCC(C(N)=O)(S(=O)(=O)c2ccc(Sc3ccccc3)cc2)CC1 [Example 445, 4-[(4-phenylthiophenyl)sulfonyl]-1-(2—propynyl)-4-piperidinecarboxamide] | – | – | – | > 10 | – |
